From article PMC3701944 (Journal of medicinal chemistry, 2013)

How the values were obtained:
Assay type in all cases: biochemical
[1] = target: cloned human μ opioid receptor (MOP) (Homo sapiens, UniProt P35372); assay: [35S]GTPγS binding assay, inhibition of DAMGO-stimulated binding
[2] = target: cloned human δ opioid receptor (DOP) (Homo sapiens, UniProt P41143); assay: [35S]GTPγS binding assay, inhibition of DPDPE-stimulated binding
[3] = target: cloned human κ opioid receptor (KOP) (Homo sapiens, UniProt P41145); assay: [35S]GTPγS binding assay, inhibition of U69,593-stimulated binding; settings: for δ/κ: selectivity for κ relative to δ (fold)
Chain of cloned human κ opioid receptor (KOP) (P41145 whole entry): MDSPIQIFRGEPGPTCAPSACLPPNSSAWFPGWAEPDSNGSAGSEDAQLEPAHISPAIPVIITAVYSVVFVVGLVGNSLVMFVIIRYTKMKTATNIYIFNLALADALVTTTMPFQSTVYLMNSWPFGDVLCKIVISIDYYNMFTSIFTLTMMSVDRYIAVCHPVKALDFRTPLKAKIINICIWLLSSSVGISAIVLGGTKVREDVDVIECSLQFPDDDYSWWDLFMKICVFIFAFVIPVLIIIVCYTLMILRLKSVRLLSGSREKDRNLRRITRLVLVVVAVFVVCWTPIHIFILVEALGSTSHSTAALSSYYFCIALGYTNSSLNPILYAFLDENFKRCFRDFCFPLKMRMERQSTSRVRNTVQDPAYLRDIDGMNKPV

Chain of cloned human δ opioid receptor (DOP) (P41143 whole entry): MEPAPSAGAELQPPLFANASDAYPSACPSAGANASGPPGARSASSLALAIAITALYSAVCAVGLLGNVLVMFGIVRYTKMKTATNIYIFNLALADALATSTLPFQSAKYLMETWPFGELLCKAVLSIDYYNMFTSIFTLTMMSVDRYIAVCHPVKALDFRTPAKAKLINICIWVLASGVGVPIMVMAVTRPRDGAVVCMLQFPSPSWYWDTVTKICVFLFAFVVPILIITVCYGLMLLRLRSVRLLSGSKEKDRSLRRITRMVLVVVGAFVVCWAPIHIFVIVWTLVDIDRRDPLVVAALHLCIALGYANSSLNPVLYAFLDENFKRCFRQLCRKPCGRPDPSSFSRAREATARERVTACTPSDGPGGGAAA
Chain of cloned human μ opioid receptor (MOP) (P35372 whole entry): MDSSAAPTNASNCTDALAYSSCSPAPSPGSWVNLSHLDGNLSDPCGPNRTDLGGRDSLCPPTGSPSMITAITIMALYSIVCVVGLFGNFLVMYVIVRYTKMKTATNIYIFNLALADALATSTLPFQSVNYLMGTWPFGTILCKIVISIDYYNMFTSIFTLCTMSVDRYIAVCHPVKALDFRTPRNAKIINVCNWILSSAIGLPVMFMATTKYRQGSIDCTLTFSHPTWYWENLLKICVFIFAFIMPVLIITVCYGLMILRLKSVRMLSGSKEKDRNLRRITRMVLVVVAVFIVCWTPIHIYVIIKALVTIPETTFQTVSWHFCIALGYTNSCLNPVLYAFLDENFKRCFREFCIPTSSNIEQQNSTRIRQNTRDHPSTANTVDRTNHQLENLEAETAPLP

Compound `CC(C)[C@@H](CN1CCN(c2cccc(O)c2)[C@@H](C)C1)NC(=O)[C@H]1Cc2ccc(O)cc2CN1` [10a, (3R)-7-Hydroxy-N-[(1S)-1-{[(3S)-4-(3-hydroxyphenyl)-3-methylpiperazin-1-yl]methyl}-2-methylpropyl]-1,2,3,4-tetrahydroisoquinoline-3-carboxamide] has a Kb [1] of 74.2 ± 7.6 nM and a Kb [2] of 1310 ± 317 nM.

`CC(C)[C@@H](CN1CCN(c2cccc(O)c2)[C@H](C)C1)NC(=O)[C@H]1Cc2ccc(O)cc2CN1` [10b, (3R)-7-Hydroxy-N-[(1S)-1-[[(3R)-4-(3-hydroxyphenyl)-3-methylpiperazin-1-yl]methyl}-2-methylpropyl]-1,2,3,4-tetrahydroisoquinoline-3-carboxamide] showed a Kb [1] of 49.4 ± 2.7 nM and a Kb [2] of 1550 ± 251 nM.

`Cc1cccc(Oc2ccc(C(=O)N[C@H](CN3CCN(c4cccc(O)c4)[C@@H](C)C3)C(C)C)c(C)c2)c1` [12f, N-[(1S)-1-{[(3S)-4-(3-Hydroxyphenyl)-3-methylpiperazin-1-yl]methyl}-2-methylpropyl]-2-methyl-4-(3-methylphenoxy)benzamide] was tested, and the Kb [1] was 18 ± 3 nM and the Kb [2] was 14 ± 3 nM.

`Cc1cccc(Oc2ccc(C(=O)N[C@H](CN3CCN(c4cccc(O)c4)[C@@H](C)C3)C(C)C)c(O)c2)c1` [12h, 2-Hydroxy-N-[(1S)-1-{[(3S)-4-(3-hydroxyphenyl)-3-methylpiperazin-1-yl]methyl}-2-methylpropyl]-4-(3-methylphenoxy)benzamide] showed a Kb [1] of 119 ± 28 nM, a Kb [2] of 880 ± 320 nM and a Kb [3] of 1.9 ± 0.4 nM.

`COc1cc(C(=O)N[C@H](CN2CCN(c3cccc(O)c3)[C@@H](C)C2)C(C)C)ccc1Oc1ccccc1O` [12i, 4-(2-Hydroxyphenoxy)-N-[(1S)-1-{[(3S)-4-(3-hydroxyphenyl)-3-methylpiperazin-1-yl]methyl}-2-methylpropyl]-3-methoxybenzamide] gave a Kb [2] of 117 ± 60 nM.

In the case of `CC(C)[C@@H](CN1CCN(c2cccc(O)c2)[C@@H](C)C1)NC(=O)c1ccc(Oc2ccccc2O)c(Cl)c1` [12j, 3-Chloro-4-(2-hydroxyphenoxy)-N-[(1S)-1-{[(3S)-4-(3-hydroxyphenyl)-3-methylpiperazin-1-yl]methyl}-2-methylpropyl]benzamide], the Kb [1] is reported as 36 ± 9 nM, the Kb [2] is reported as 210 ± 82 nM and the Kb [3] is reported as 5 ± 0.82 nM.

`COc1cc(C(=O)N[C@H](CN2CCN(c3cccc(O)c3)[C@@H](C)C2)C(C)C)ccc1Oc1cc(C)ccc1O` [12k, 4-(2-Hydroxy-5-methylphenoxy)-N-[(1S)-1-{[(3S)-4-(3-hydroxyphenyl)-3-methylpiperazin-1-yl]methyl}-2-methylpropyl]-3-methoxybenzamide] was tested, and the Kb [1] was 10.2 ± 3 nM and the Kb [2] was 117 ± 80 nM.

`CC(C)[C@@H](CN1CCN(c2cccc(O)c2)[C@@H](C)C1)NC(=O)c1ccc(-c2ccccc2)cc1` [compound 22, N-[(1S)-1-{[(3S)-4-(3-Hydroxyphenyl)-3-methylpiperazin-1-yl]methyl}-2-methylpropyl]biphenyl-4-carboxamide] gave a Kb [1] of 8.69 ± 3 nM, a Kb [2] of 258 ± 88 nM and a Kb [3] of 1.87 ± 0.47 nM.

For `CCCCc1ccc(C(=O)N[C@H](CN2CCN(c3cccc(O)c3)[C@@H](C)C2)C(C)C)cc1` [compound 23, 4-Butyl-N-[(1S)-1-{[(3S)-4-(3-hydroxyphenyl)-3-methylpiperazin-1-yl]methyl}-2-methylpropyl]benzamide], the Kb [1] was 21.1 ± 2 nM, the Kb [2] was 230 ± 3 nM and the Kb [3] was 2.8 ± 1 nM.

For `COc1ccc(C(=O)N[C@H](CN2CCN(c3cccc(O)c3)[C@@H](C)C2)C(C)C)cc1OC` [compound 24, N-[(1S)-1-{[(3S)-4-(3-Hydroxyphenyl)-3-methylpiperazin-1-yl]methyl}-2-methylpropyl]-3,4-dimethoxybenzamide], the Kb [1] was 334 ± 110 nM, the Kb [2] was > 10000 nM and the Kb [3] was 81.7 ± 30 nM. The δ/κ ([3]; ratio of Ke values) was >122.

“N-(1S)-1-{[(3S)-4-(3-Hydroxyphenyl)-3-methylpiperazin-1-yl]methyl}-2-methylpropyl]-5-phenoxypyridine-2-carboxamide [compound 14]” was tested, and the δ/κ ([3]; ratio of Ke values) was 1119 and the μ/κ ([3]; ratio of Ke values, selectivity for κ relative to μ (fold)) was 38.
